Laboratory results from patent US9255096B1, “Substituted 1,2,3,4-tetrahydrobenzo[C][2,7] naphthyridines and derivatives thereof as kinase inhibitors” (Allergan, Inc., priority 2014, dated 2016).

Legend:
VEGFR2 [1] = target: T1, VEGFR2 (Homo sapiens (Human), UniProt P35968); assay: VEGFR2 Kinase Assay (enzyme); assay type: biochemical; conditions: purified cytoplasmic domain KDR protein, 2.7 μM ATP
Procedure: VEGFR2 Kinase Assay: Biochemical KDR kinase assays were performed in 96 well microtiter plates that were coated overnight with 75 μg/well of poly-Glu-[…]:1) in 10 mM Phosphate Buffered Saline (PBS), pH 7.4. The coated plates were washed with 2 mls per well PBS+0.05% Tween-20 (PBS-T), blocked by incubation with PBS containing 1% BSA, then washed with 2 mls per well PBS-T prior to starting the reaction. Reactions were carried out in 100 μL reaction volumes containing 2.7 μM ATP in kinase buffer (50 mM Hepes buffer pH 7.4, 20 mM MgCl2, 0.1 mM MnCl2 and 0.2 mM Na3VO4). Test compounds were reconstituted in 100% DMSO and added to the reaction to give a final DMSO concentration of 5%. Reactions were initiated by the addition 20 ul per well of kinase buffer containing 200-300 ng purified cytoplasmic domain KDR protein (BPS Bioscience, San Diego, Calif.). Following a 15 minute incubation at 30° C., the reactions were washed 2 mls per well PBS-T. 100 μl of a monoclonal anti-phosphotyrosine antibody-peroxidase conjugate diluted 1:10,000 in PBS-T was added to the wells for 30 minutes. Following a 2 mls per well wash with PBS-Tween-20, 100 μl of 0-Phenylenediamine Dihydrochloride in phosphate-citrate buffer, containing urea hydrogen peroxide, was added to the wells for 7-10 minutes as a colorimetric substrate for the peroxidase. The reaction was terminated by the addition of 100 μl of 2.5N H2SO4 to each well and read using a microplate ELISA reader set at 492 nm. IC50 values for compound inhibition were calculated directly from graphs of optical density (arbitrary units) versus compound concentration following subtraction of blank values.
Target sequence in this assay (P35968 786-1356): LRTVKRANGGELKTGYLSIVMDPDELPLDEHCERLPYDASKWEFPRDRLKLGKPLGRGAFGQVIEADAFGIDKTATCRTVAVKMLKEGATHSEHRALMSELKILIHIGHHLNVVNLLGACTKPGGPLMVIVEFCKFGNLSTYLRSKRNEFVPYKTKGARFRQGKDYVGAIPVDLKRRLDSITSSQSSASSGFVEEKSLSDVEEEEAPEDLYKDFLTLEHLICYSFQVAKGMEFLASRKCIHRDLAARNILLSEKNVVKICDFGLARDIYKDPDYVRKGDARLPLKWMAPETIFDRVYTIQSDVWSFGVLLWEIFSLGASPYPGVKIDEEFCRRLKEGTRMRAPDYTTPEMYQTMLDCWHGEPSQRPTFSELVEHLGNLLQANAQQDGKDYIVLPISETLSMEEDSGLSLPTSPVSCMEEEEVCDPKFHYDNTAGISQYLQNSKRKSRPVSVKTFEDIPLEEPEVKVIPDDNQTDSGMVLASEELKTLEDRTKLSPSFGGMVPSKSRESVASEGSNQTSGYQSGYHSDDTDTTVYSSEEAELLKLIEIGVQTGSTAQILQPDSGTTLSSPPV

PDGFRβ [2] = target: T2, PDGFRβ (Homo sapiens (Human), UniProt P09619); assay: PDGFRβ Kinase Assay (enzyme); assay type: biochemical; conditions: purified cytoplasmic domain PDGFR-b protein, 36 μM ATP
Procedure: Biochemical PDGFRβ kinase assays were performed in 96 well microtiter plates that were coated overnight with 75 μg of poly-Glu-Tyr (4:1) in 10 mM Phosphate Buffered Saline (PBS), pH 7.4. The coated plates were washed with 2 mls per well PBS+0.05% Tween-20 (PBS-T), blocked by incubation with PBS containing 1% BSA, then washed with 2 mls per well PBS-T prior to starting the reaction. Reactions were carried out in 100 μL reaction volumes containing 36 μM ATP in kinase buffer (50 mM Hepes buffer pH 7.4, 20 mM MgCl2, 0.1 mM MnCl2 and 0.2 mM Na3VO4). Test compounds were reconstituted in 100% DMSO and added to the reaction to give a final DMSO concentration of 5%. Reactions were initiated by the addition 20 ul per well of kinase buffer containing 200-300 ng purified cytoplasmic domain PDGFR-b protein (Millipore). Following a 60 minute incubation at 30° C., the reactions were washed 2 mls per well PBS-T. 100 μl of a monoclonal anti-phosphotyrosine antibody-peroxidase conjugate diluted 1:10,000 in PBS-T was added to the wells for 30 minutes. Following a 2 mls per well wash with PBS-Tween-20, 100 μl of 0-Phenylenediamine Dihydrochloride in phosphate-citrate buffer, containing urea hydrogen peroxide, was added to the wells for 7-10 minutes as a colorimetric substrate for the peroxidase. The reaction was terminated by the addition of 100 μl of 2.5N H2SO4 to each well and read using a microplate ELISA reader set at 492 nm. IC50 values for compound inhibition were calculated directly from graphs of optical density (arbitrary units) versus compound concentration following subtraction of blank values.
Target sequence in this assay (P09619 554-1106): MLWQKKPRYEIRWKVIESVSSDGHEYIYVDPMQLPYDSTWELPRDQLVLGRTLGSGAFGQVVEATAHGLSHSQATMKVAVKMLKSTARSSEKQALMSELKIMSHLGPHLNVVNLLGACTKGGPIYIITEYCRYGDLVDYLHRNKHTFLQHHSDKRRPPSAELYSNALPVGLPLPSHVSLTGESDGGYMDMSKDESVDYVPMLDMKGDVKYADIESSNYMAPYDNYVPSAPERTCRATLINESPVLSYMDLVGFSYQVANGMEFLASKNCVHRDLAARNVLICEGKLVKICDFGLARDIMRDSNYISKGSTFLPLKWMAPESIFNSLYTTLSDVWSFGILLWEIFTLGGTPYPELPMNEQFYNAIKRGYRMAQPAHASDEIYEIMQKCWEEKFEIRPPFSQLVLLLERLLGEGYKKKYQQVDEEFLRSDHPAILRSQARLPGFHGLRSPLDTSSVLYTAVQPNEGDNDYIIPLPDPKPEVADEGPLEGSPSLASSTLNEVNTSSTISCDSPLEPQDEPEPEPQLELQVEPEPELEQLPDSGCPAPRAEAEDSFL

VEGFR2 [3] = target: T1, VEGFR2; assay: VEGFR2 Cellular Assay; assay type: cell-based
Target sequence in this assay (P35968 20-1356, species assumed): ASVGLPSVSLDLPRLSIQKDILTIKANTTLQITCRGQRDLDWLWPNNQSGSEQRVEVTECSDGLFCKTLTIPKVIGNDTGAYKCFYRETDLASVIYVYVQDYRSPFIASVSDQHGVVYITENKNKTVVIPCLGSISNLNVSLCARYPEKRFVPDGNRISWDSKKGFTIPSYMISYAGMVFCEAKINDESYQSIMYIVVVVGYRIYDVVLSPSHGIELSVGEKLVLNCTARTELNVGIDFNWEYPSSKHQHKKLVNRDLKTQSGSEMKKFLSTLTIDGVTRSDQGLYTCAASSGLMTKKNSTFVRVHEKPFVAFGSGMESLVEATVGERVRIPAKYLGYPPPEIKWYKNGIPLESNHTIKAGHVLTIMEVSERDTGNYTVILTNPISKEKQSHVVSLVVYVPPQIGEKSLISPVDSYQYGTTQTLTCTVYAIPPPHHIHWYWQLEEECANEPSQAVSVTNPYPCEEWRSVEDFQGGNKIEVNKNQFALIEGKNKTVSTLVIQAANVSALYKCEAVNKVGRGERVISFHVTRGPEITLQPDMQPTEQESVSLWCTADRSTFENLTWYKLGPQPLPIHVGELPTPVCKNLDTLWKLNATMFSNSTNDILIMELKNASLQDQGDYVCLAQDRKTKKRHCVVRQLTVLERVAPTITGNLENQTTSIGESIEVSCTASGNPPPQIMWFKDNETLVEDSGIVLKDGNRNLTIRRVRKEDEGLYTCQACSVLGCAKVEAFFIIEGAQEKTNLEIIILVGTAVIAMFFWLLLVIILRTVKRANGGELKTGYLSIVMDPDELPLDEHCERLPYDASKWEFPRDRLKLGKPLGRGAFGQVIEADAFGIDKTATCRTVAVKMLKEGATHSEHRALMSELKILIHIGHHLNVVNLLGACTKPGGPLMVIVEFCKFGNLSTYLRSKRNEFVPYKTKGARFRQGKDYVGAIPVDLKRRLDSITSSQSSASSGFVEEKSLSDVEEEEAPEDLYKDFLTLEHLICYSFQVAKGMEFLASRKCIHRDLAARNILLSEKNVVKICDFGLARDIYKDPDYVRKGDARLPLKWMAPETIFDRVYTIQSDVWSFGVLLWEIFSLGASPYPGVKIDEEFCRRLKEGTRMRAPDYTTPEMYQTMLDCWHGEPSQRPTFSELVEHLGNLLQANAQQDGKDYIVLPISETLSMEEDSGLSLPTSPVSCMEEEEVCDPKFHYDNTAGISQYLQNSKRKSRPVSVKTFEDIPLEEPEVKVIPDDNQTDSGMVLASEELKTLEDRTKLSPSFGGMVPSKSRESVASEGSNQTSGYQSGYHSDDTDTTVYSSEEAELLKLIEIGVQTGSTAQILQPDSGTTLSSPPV

PDGFRβ [4] = target: T2, PDGFRβ; assay: PDGFRβ Cellular Assay; assay type: cell-based
Target sequence in this assay (P09619 33-1106, species assumed): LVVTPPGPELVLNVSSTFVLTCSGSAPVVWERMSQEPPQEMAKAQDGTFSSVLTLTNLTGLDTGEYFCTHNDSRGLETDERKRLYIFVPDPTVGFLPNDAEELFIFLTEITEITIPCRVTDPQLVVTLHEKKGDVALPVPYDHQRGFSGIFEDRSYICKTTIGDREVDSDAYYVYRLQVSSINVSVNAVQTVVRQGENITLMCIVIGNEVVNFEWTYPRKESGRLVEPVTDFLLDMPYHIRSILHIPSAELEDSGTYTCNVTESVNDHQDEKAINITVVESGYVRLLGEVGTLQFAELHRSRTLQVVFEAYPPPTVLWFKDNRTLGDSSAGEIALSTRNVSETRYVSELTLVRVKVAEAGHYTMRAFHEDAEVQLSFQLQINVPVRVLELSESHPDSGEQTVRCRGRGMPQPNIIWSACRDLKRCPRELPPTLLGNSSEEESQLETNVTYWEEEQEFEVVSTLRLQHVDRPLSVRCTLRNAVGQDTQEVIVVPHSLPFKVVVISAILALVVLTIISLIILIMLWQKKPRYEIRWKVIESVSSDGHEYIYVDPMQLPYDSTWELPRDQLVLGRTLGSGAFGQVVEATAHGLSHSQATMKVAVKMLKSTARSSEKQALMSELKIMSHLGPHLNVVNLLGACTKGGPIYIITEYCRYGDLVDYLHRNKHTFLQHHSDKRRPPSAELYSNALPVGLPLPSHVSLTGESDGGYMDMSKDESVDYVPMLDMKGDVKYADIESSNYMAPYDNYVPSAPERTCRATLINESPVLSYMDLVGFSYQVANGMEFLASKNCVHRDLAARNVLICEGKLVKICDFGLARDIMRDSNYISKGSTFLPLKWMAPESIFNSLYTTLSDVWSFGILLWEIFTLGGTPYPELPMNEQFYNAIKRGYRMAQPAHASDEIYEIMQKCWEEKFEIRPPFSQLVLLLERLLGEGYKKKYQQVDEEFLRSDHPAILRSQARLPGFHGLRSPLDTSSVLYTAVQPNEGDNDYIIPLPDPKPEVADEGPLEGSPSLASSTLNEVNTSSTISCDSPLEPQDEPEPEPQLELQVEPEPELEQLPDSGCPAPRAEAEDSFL

COc1cc2ncc3c(c2cc1OC)CCN(c1cccc(C(=O)Nc2cccc(C(C)C)c2)c1)C3 [Example 10, 3-(8,9-dimethoxy-1,4-dihydrobenzo[c]-2,7-naphthyridin-3(2H)-yl)-N-(3-isopropylphenyl)benzamide]
IC50 (VEGFR2 [1]): 7 nM | IC50 (PDGFRβ [2]): 11 nM

O=C(Nc1cccc(C(F)(F)F)c1)c1cccc(N2CCc3c(cnc4ccccc34)C2)c1 [Example 7, 3-(1,4-dihydrobenzo[c]-2,7-naphthyridin-3(2H)-yl)-N-[3-(trifluoromethyl)phenyl]benzamide]
IC50 (VEGFR2 [1]): 10 nM | IC50 (VEGFR2 [3]): 46 nM | IC50 (PDGFRβ [2]): 14 nM | IC50 (PDGFRβ [4]): 103 nM

CCc1cccc(NC(=O)c2cccc(N3CCc4c(cnc5ccccc45)C3)c2)c1 [Example 4, 3-(1,4-dihydrobenzo[c]-2,7-naphthyridin-3(2H)-yl)-N-(3-ethylphenyl)benzamide]
IC50 (VEGFR2 [1]): 6 nM | IC50 (VEGFR2 [3]): 19 nM | IC50 (PDGFRβ [2]): 10 nM | IC50 (PDGFRβ [4]): 58 nM

CC(C)c1cccc(NC(=O)c2cccc(N3CCc4c(cnc5ccccc45)C3)c2)c1 [Example 5, 3-(1,4-dihydrobenzo[c]-2,7-naphthyridin-3(2H)-yl)-N-(3-isopropylphenyl)benzamide]
IC50 (VEGFR2 [1]): 7 nM | IC50 (VEGFR2 [3]): 30 nM | IC50 (PDGFRβ [2]): 15 nM | IC50 (PDGFRβ [4]): 200 nM

CC(C)c1ccc(NC(=O)c2cccc(N3CCc4c(cnc5ccccc45)C3)c2)cc1 [Example 6, 3-(1,4-dihydrobenzo[c]-2,7-naphthyridin-3(2H)-yl)-N-(4-isopropylphenyl)benzamide]
IC50 (VEGFR2 [1]): 8 nM | IC50 (VEGFR2 [3]): 71 nM | IC50 (PDGFRβ [2]): 16 nM

CCc1cccc(NC(=O)c2cccc(N3CCc4c(cnc5ccsc45)C3)c2)c1 [Example 14, 3-(8,9-dihydrothieno[3,2-c]-2,7-naphthyridin-7(6H)-yl)-N-(3-ethylphenyl)benzamide]
IC50 (VEGFR2 [1]): 5 nM | IC50 (VEGFR2 [3]): 12 nM | IC50 (PDGFRβ [2]): 7 nM

Cc1cccc(NC(=O)c2cccc(N3CCc4c(cnc5ccccc45)C3)c2)c1 [Example 3, 3-(1,4-dihydrobenzo[c]-2,7-naphthyridin-3(2H)-yl)-N-(3-methylphenyl)benzamide]
IC50 (VEGFR2 [1]): 7 nM | IC50 (VEGFR2 [3]): 23 nM | IC50 (PDGFRβ [2]): 16 nM

COc1cc2ncc3c(c2cc1OC)CCN(c1cccc(C(=O)Nc2ccc(C(C)C)cc2)c1)C3 [Example 11, 3-(8,9-dimethoxy-1,4-dihydrobenzo[c]-2,7-naphthyridin-3(2H)-yl)-N-(4-isopropylphenyl)benzamide]
IC50 (VEGFR2 [1]): 9 nM | IC50 (VEGFR2 [3]): 20 nM | IC50 (PDGFRβ [2]): 18 nM
